Measurements from US20210277009A1, “PRMT5 INHIBITORS” (Merck Sharp & Dohme Corp., priority 2018, published 2021).
pEC50: −log10 of the molar value. Structures can show the parent of a compound that is named as a salt. Where two headings read alike, the source gives them in different places.

Legend:
[1] = biological target: T1, PRMT5-MEP50 enzyme complex (Homo sapiens, UniProt O14744); assay: PRMT5-MEP50 Enzyme Methylation Assay; assay type: biochemical
T1 construct: 1.25 nM of Full-length (FL)-PRMT5-MEP50 enzyme complex; made in house; host or cells: baculovirus-transfected Sf21 cells
Experimental: PRMT5-MEP50 biochemical assay is a direct measurement of the methylation activity of the enzyme complex on a short peptide substrate derived from the N-terminus of H4 histone. Methylation experiment is performed with recombinant PRMT5-MEP50 protein complex. The assessment of inhibitory effect of small molecules is measured by tire effectiveness of the compounds to inhibit tins reaction (EC50).
In this assay, the potency (EC50) of each compound was determined from a twenty-point (1:2 serial dilution; top compound concentration of 100000 nM) titration curve using the following outlined procedure. To each well of a white ProxiPlus 384 well-plate, 100 nL of compound (1% DMSO in final assay volume of 10 μL) was dispensed, followed by the addition of 8 μL of 1× assay buffer (50 mM Bicine pH 8.0, 1 mM DTT, 0.004% Tween20, 0.01% BSA) containing 1.25 nM of Full-length (FL)-PRMT5-MEP50 enzyme complex (recombinant proteins from baculovirus-transfected Sf21 cells: FL-PRMT5; MW=[…] and FL-MEP50; MW=38614) and 1 μL of 150 μM S-(5′-Adenosyl)-L-Methionine Chloride (SAM). Plates were sealed and placed in a 37° C. humidified chamber for a 60 minutes pre-incubation with compound. Subsequently, each reaction was initiated by the addition of 1 μL 1× assay buffer containing 750 nM biotinylated H4R3(Mel) peptide. The final reaction in each well of 10 μL consists of 1.0 nM PRMT5-MEP50, 75 nM biotinylated-peptide, and […] SAM. Methylation reactions were allowed to proceed for 150 minutes in a sealed plate at 37° C. Reactions were immediately quenched by the addition of 1 μL of 5% formic acid. Plates were then frozen and shipped to SAMDITM Tech Inc. to determine the percent conversion from H4R3(Mel) to H4R3(Me2). Dose-response curves were generated by plotting percent effect (% product conversion; Y-axis) vs. Log 10 compound concentrations (X-axis). EC50 values were determined by non-linear regression according to models for either sigmoidal (4 parameters) or biphasic (7 parameters) dose-response curves.

[2] = system: symmetric dimethylation of arginine (SDMA) of PRMT5 substrates in MCF-7 cells; assay: PRMT5 Cell Target Engagement (TE) Assay; assay type: cell-based; details: treated for 3 days, nuclear SDMA by high content imaging, top concentration 10000 nM
From the text: The PRMT5 TE assay is a biomarker assay for identifying compounds that inhibit symmetric dimethylation of arginine (SDMA) of PRMT5 substrates. The following substrates have been reported for PRMT5: histone H2A and H4 R3, Histone H3 R2, Histone H3 R8, spliceosome Sm proteins, ribosomal protein RPS10, p53, FEN1, nudeoplasmin, nucleolin, EGFR and EBNA. The assay will focus on detecting symmetrically dimethylated nuclear proteins using high content imaging technology. Detection of the expression of symmetrically dimethylated nuclear proteins is through a mixture of primary rabbit monoclonal antibodies to SDMA (CST 13222), which in turn recognized by an Alexafluor 488 dye-conjugated anti-rabbit IgG secondary antibody. The IN Cell Analyzer 2200 or Opera-Phenix measures nuclear Alexafluor 488 fluorescent dye intensity that is directly related to the level of expression of symmetrically dimethylated nuclear proteins at the single cell level. Nuclear AF488 dye intensities are compared to the mean value for DMSO treated cells (MIN) to report percent of inhibition for each compound-treated well.
In this assay, the cell potency (EC50) of each compound was determined from a ten point (1:3 serial dilution; top compound concentration of 10000 nM) titration curve using the following outlined procedure. Each well of a BD falcon collagen coated black/clear bottom 384-well plate was seeded with 4000 MCF-7 cells in 30 μl media and allowed to attach for 5 h. Media is ATCC-formulated Eagle's Minimum Essential Medium, Catalog No. 30-2003. To make the complete growth medium, the following components were added to the base medium: 0.01 mg/ml human recombinant insulin; fetal bovine serum to a final concentration of 10%. Additional 30 μl of media containing 2× compounds were added to each well. Cells were treated for 3 days in 37° C. CO2 incubator. On day 3, cells were fixed with Cytofix, permeablized with 0.4% Triton-X-100/Cytofix, and washed with D-PBS without Ca/Mg. Cells were blocked with Licor Odessey blocking reagent for 1 h at room temperature, followed by incubation with anti-SDMA (1:1000) antibody at 4° C. overnight. 1° antibody was removed, followed by three washings with DPBS without Ca/Mg and 0.05% Tween20. Hoechst (5 μg/ml), Cell Mask deep stain (1:2000) and Alexa488-conjugated goat anti-rabbit IgG (2 μg/mL) was added for 1 hour at room temperature. A final washing step (three washes) was performed before sealing plate for imaging on In Cell Analyzer 2200 or Opera-Phenix. Images from analyzer were uploaded to Columbus (at WP or BOS) for image analysis. IC50 values were determined by 4 parameters robust fit of percent fluorescence units vs. (Logic) compound concentrations.

[3] = single EC50 from 4 parameters single site sigmoidal model, or first EC50 of 7 parameters biphasic model, 1.0 nM PRMT5-MEP50, H4R3(Me1) peptide, SAM, read-out: Enzyme Methylation Assay (EC50 or EC50_1)
[4] = second EC50 of 7 parameters biphasic model, read-out: Enzyme Methylation Assay (EC50_2)

T1 sequence (O14744 whole entry): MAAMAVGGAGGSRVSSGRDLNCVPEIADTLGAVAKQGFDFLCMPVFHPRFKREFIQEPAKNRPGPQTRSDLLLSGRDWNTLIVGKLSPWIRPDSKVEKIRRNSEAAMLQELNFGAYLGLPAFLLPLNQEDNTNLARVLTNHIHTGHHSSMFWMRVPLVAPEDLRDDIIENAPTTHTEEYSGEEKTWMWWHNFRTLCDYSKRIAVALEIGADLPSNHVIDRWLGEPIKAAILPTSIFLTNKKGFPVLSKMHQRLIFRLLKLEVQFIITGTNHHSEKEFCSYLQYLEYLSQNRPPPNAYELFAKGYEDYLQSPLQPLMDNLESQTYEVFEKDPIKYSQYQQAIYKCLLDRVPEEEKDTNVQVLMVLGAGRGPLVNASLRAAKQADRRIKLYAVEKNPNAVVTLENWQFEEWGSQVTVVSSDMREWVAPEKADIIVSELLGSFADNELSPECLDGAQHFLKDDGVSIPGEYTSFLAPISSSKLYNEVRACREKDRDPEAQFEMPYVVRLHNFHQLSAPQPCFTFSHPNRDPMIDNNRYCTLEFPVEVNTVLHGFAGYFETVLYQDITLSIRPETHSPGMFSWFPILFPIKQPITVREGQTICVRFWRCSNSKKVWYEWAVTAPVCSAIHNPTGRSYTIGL
T1 sequence (Q9BQA1 whole entry partner): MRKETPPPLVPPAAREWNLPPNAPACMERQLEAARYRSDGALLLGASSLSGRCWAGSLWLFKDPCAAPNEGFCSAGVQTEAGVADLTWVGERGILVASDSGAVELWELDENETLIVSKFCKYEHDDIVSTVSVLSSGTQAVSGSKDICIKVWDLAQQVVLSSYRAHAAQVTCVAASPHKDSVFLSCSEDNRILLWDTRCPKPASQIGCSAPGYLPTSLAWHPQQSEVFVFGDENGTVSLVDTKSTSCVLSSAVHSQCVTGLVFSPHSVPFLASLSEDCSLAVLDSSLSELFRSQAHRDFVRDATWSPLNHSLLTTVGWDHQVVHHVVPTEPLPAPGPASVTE

Compound | pEC50 [1, 3] | pEC50 ([2]; Homo sapiens, MCF7, 72 h) | pEC50 [1, 4] | pEC50 [2]
Nc1ccc2ccc(CC[C@@H]3S[C@@H](n4ccc5c(N)ncnc54)[C@H](O)[C@@H]3O)cc2n1 [Example 15, (2R,3R,4S,5S)-2-(4-amino-7H-pyrrolo[2,3-d]pyrimidin-7-yl)-5-(2-(2-aminoquinolin-7-yl)ethyl)tetrahydrothiophene-3,4-diol] | 9.05 | 8.85 |  | 
Cc1ncnc2c1ccn2[C@@H]1S[C@@H](CCc2ccc3ccc(N)nc3c2)[C@@H](O)[C@H]1O [Example 16, (2S,3S,4R,5R)-2-[2-(2-aminoquinolin-7-yl)ethyl]-5-(4-methyl-7H-pyrrolo[2,3-d]pyrimidin-7-yl)tetrahydrothiophene-3,4-diol] | 8.77 | 8.80 |  | 
Cc1ncnc2c1ccn2[C@@H]1S[C@H](CCc2ccc3cc(Br)c(N)nc3c2)[C@@H](O)[C@H]1O [Example 18, (2R,3S,4R,5R)-2-(2-(2-amino-3-bromoquinolin-7-yl)ethyl)-5-(4-methyl-7H-pyrrolo[2,3-d]pyrimidin-7-yl)tetrahydrothiophene-3,4-diol] | 8.66 | 8.30 |  | 
Cc1ncnc2c1ccn2[C@@H]1S[C@H](CCc2ccc3cc(C(F)(F)F)c(N)nc3c2)[C@@H](O)[C@H]1O [Example 20, (2R,3S,4R,5R)-2-{2-[2-amino-3-(triflnoromethyl)quinolin-7-yl]ethyl}-5-(4-methyl-7H-pyrrolo[2,3-d]pyrimidin-7-yl)tetrahydrothionhene-3,4-diol] | 9.15 | 6.13 | 6.92 | 
Cc1ncnc2c1ccn2[C@@H]1S[C@@H](CCc2ccc3cc(C(F)(F)F)c(N)nc3c2)[C@@H](O)[C@H]1O [Example 21, (2S,3S,4R,5R)-2-{2-[2-amino-3-(trifluoromethyl)quinolin-7-yl]ethyl}-5-(4-methyl-7H-pyrrolo[2,3-d]pyrmidin-7-yl)tetrahydrothiophene-3,4-diol] | 8.13 | ≤ 5.00 |  | 
Cc1ncnc2c1ccn2[C@@H]1S[C@H](CCc2ccc3cc(F)c(N)nc3c2)[C@@H](O)[C@H]1O [Example 22, (2R,3S,4R,5R)-2-[2-(2-amino-3-fluoroquinolin-7-yl)ethyl]-5-(4-methyl-7H-pyrrolo[2,3-d]pyrimidin-7-yl)tetrahydrodrothiophene-3,4-diol] | 8.00 | 8.23 |  | 
Cc1ncnc2c1ccn2[C@@H]1S[C@@H](CCc2ccc3cc(F)c(N)nc3c2)[C@@H](O)[C@H]1O [Example 23, (2S,3S,4R,5R)-2-[2-(2-amino-3-fluoroquinolin-7-yl)ethyl]-5-(4-methyl-7H-pyrrolo[2,3-d]pyrimidin-7-yl)tetrahydrothiophene-3,4-diol] | 7.23 | 7.38 |  | 
Cc1ncnc2c1ccn2[C@@H]1S[C@H](CCc2ccc3cc(Cl)c(N)nc3c2)[C@@H](O)[C@H]1O [Example 24] | 8.82 | 7.76 |  | 
Cc1ncnc2c1ccn2[C@@H]1S[C@@H](CCc2ccc3cc(Cl)c(N)nc3c2)[C@@H](O)[C@H]1O [Example 25, (2S,3S,4R,5R)-2-[2-(2-amino-3-chloroquinolin-7-yl)ethyl]-5-(4-methy1-7H-pyrrolo[2,3-d]pyrimidin-7-yl)tetrahydrothiophene-3,4-diol] | 8.89 | 8.08 |  | 
Cc1ncnc2c1ccn2[C@@H]1S[C@H](CCc2ccc3ccc(NCC(F)F)nc3c2)[C@@H](O)[C@H]1O [Example 26, (2R,3S,4R,5R)-2-(2-{2-[(2,2-difluoroethyl)amino]quinolin-7-yl}ethyl)-5-(4-methyl-7H-pyrrolo[2,3-d]pyrimidin-7-yl)tetrahydrothiophene-3,4-diol] | 7.22 |  |  | 7.98
C[C@]1(CCc2ccc3cc(Br)c(N)nc3c2)S[C@@H](n2ccc3c(Cl)ncnc32)[C@H](O)[C@@H]1O [Example 31, (2R,3S,4R,5R)-2-(2-(2-amino-3-bromoquinolin-7-yl)ethyl)-5-(4-chloro-7H-pyrrolo[2,3-d]pyrimidin-7-yl)-2-methyltetrahydrothiophene-3,4-diol] | 9.15 | 7.27 |  | 
CNc1ncnc2c1ccn2[C@@H]1S[C@](C)(CCc2ccc3cc(Br)c(N)nc3c2)[C@@H](O)[C@H]1O [Example 33, (2R,3S,4R,5R)-2-(2-(2-amino-3-bromoquinolin-7-yl)ethyl)-2-methyl-5-(4-(methylamino)-7H-pyrrolo[2,3-d]pyrimidin-7-yl)tetrahydrothiophene-3,4-diol] | 9.10 | 7.87 |  | 
Cc1nc(N)c2ccn([C@@H]3S[C@H](CCc4ccc5cc(Br)c(N)nc5c4)[C@@H](O)[C@H]3O)c2n1 [Example 35, (2R,3R,4S,5R)-2-(4-amino-2-methyl-7H-pyrrolo[2,3-d]pyrimidin-7-yl)-5-(2-(2-amino-3-bromoquinolin-7-yl)ethyl)tetrahydrothiophene-3,4-diol] | 8.77 | 7.45 |  | 

The next compounds have a higher pEC50 [1, 3] than those just listed; values first:

pEC50 [1, 3] | pEC50 ([2]; Homo sapiens, MCF7, 72 h) | pEC50 [1, 4] | pEC50 [2] | Compound
9.52 | 9.15 |  |  | Nc1ccc2ccc(CC[C@H]3S[C@@H](n4ccc5c(N)ncnc54)[C@H](O)[C@@H]3O)cc2n1 [Example 14, (2R,3R,4S,5R)-2-(4-amino-7H-pyrrolo[2,3-d]pyrimidin-7-yl)-5-(2-(2-aminoquinolin-7-yl)ethyl)tetrahydrothiophene-3,4-diol TFA salt]
9.40 | 9.22 |  |  | Cc1ncnc2c1ccn2[C@@H]1S[C@H](CCc2ccc3ccc(N)nc3c2)[C@@H](O)[C@H]1O [Example 17]
9.40 | 8.08 | 7.30 |  | Cc1ncnc2c1ccn2[C@@H]1S[C@@H](CCc2ccc3cc(Br)c(N)nc3c2)[C@@H](O)[C@H]1O [Example 19]
9.52 | 9.30 |  |  | C[C@]1(CCc2ccc3cc(Br)c(N)nc3c2)S[C@@H](n2ccc3c(N)ncnc32)[C@H](O)[C@@H]1O [Example 30]
9.22 | 8.25 |  |  | Cc1ncnc2c1ccn2[C@@H]1S[C@](C)(CCc2ccc3cc(Br)c(N)nc3c2)[C@@H](O)[C@H]1O [Example 32]
9.30 | 7.54 | 6.82 |  | Cc1cn([C@@H]2S[C@H](CCc3ccc4cc(Br)c(N)nc4c3)[C@@H](O)[C@H]2O)c2ncnc(N)c12 [Example 34, (2R,3S,4R,5R)-2-(2-(2-amino-3-bromoquinolin-7-yl)ethyl)-5-(4-amino-5-methyl-7H-pyrrolo[2,3-d]pyrimidin-7-yl)tetrahydrothiophene-3,4-diol]
9.22 | 7.09 | 7.82 |  | CNc1ncnc2c1ccn2[C@@H]1S[C@H](CCc2ccc3cc(Br)c(N)nc3c2)[C@@H](O)[C@H]1O [Example 36]
